Measured values: PMC3269340, “Pharmacokinetics of memantine in rats and mice” (PLoS Currents, 2012)
Like-named read-outs stand apart in the source and are kept apart here.

Tests used:
[1] = cited from earlier work
in vivo = settings: male, C57Bl/6, mouse
Procedure: The goals of these studies were to evaluate the PK of memantine (hydrochloride salt) in Sprague-Dawley rats and C57Bl/6 mice following a single intravenous bolus (iv; 1 mg eq./kg), oral gavage (po; 1 and 10 mg eq./kg), or subcutaneous (sc; 1 and 10 mg eq./kg) administration.
Sprague Dawley (SD) rats (138 adult males), and C57Bl/6 mice (140 adult males), were obtained (Hilltop Laboratories, Scottsdale, PA); 123 per species were used in the study and the remainder provided blank matrix. Animals were individually identified by tail markings and were acclimated to the study environment for 16-21 days prior to dose administration. Animals were individually housed in suspended wire caging, and were kept on a 12h/12h light/dark cycle except when interrupted for study procedures. Average room temperature was regulated in the range 18 to 29°C, average relative humidity of 30-70%, and an average daily airflow >10 fresh air changes/h. Animals were fed LabDiet^Ò Certified Rodent Diet 5002 Meal food ad libitum, except during fasting prior to dose administration, and had access to water ad libitum.
Memantine was dosed as a solution in physiological saline as a single dose via intravenous bolus (1 mg eq./kg), oral gavage (po; 1 and 10 mg eq./kg), or subcutaneous (sc; 1 and 10 mg eq./kg) administration. The concentration of memantine in the 1 mg eq./kg iv, po, and sc solutions dosed to rats was 1 mg eq./mL, and the dose volume was 1 mL/kg. The concentration of memantine for the same dose level administered to mice was 0.2 mg eq./mL, and the dose volume was 5 mL/kg. The concentration of memantine in the 10mg eq./kg po and sc solutions was 5 mg eq./mL and the dose volume was 2 mL/kg for both rats and mice.
Details of the dose administration, body weights, clinical observations, plasma and brain sample collection and preparation are not shown in this report but are available upon request. Blood (for preparation of plasma) and brain samples were collected at 0.08, 0.25, 0.5, 1, 2, 4, 8, and 24h post-dose.
Since all time points were terminal, mean memantine concentrations per time point were used to calculate the composite PK parameters by non-compartmental analysis using WinNonlin program, version 5.2 (Pharsight Corp., Mountain View, California). A model was selected based on the vascular (iv bolus) or extravascular (po or sc) routes of administration. For the iv route, plasma concentration at time zero was back extrapolated from the first two observed post dose plasma concentrations. For the po and sc routes, concentration at time zero was assumed to be zero. Plasma and tissue concentrations below the limit of quantitation were treated as absent samples for the purpose of calculating the mean plasma concentration values or for calculating PK parameters.
The area under the plasma concentration versus time curve (AUC) was calculated using the linear trapezoidal method (linear interpolation). When appropriate, the terminal elimination phase of the PK profile was estimated based on the best fit (r^2) using at least the last three observed concentrations. PK parameters describing the systemic exposure of memantine in plasma and brain were estimated from observed (rather than predicted) plasma/brain concentrations, the dosing regimen, the AUC, and the terminal elimination phase rate constant (kel) for each group. The portion of the AUC from the last measurable concentration to infinity was estimated from the equation Ct/kel, where Ct represents the last measurable concentration. The extrapolated portion of the AUC was used for the determination of AUC0-∞. The percent bioavailability (%F) was calculated by dividing the dose normalized extravascular plasma AUC0-∞ by the dose normalized iv plasma AUC0-∞ times 100. The bioavailability calculations assumed concentrations were in the linear range.
Concentrations of memantine in rat and mouse plasma and brain were determined using an LC-MS/MS assay developed at ABC Laboratories.

## CC12CC3CC(C)(C1)CC(N)(C3)C2 [memantine]
[1]; human plasma/serum, 10 mg twice daily po, normal renal clearance
  Cmax: 83.5 ng/mL
[1]; human plasma/serum, 10 mg twice daily, read-out: Cmax
  Cmax: 470 nM
[1]; human, 10 mg BID po, read-out: Cmax
  Cmax: 470 nM
[1]; human, 10 mg BID
  C min: 300 nM
  Cmax/Cmin ratio at steady state: 1.54
[1]; human, acidic conditions
  renal clearance as share of total systemic clearance: 92%
[1]; human, alkaline conditions
  renal clearance as share of total systemic clearance: 60-67%
[1]; human, normal renal function
  Total plasma clearance (Clp): 182 mL/min
  renal clearance (Clr): 164 mL/min
  share of total plasma clearance accounted for by renal clearance: 90%
[1]; human, po
  Tmax: 4 to 6 h
[1]; human
  dose eliminated as intact memantine in the urine: 75-90%
  elimination half-life: 60 to 80 h
  volume of distribution at steady state (Vdss): 9 to 11 L/kg
In vivo
  Cmax and exposures increase, fold more than dose-proportional: ~ 1.5 fold
  Cmax/Cmin ratios: > 100
  Contribution of active transport to clearance: > 100%
  delay in Tmax for brain compared to plasma: 0.25 to 1.5 h
  elimination half-life: < 4 h
  total systemic clearance, times higher than GFR: ~4.5 fold
In vivo; 10 mg/kg
  C max/ C min ratio: 760
  concentration at 24 h: 10 nM
In vivo; 10 mg/kg, T max
  Tmax: 0.5 to 1 h
In vivo; Tmax after extravascular administration
  Tmax: 0.25 to 0.5 h
In vivo; brain elimination half-lives after extravascular administrations
  half-life: 2.16 to 3.05 h
In vivo; elimination half-life
  half-life: 3 to 4 h
In vivo; in vivo, iv, 1 mg/kg
  Cmax: 7700 nM
In vivo; in vivo, sc, 1 mg/kg
  Cmax: 527 nM
In vivo; iv, 1 mg/kg
  Half-life (t½): 2.98 h
  MRT inf: 2.35 h
  clearance: 63.5 mL/min/kg
In vivo; iv, 1 mg/kg, Half-life (t½)
  half-life: 1.97 h
In vivo; iv, 1 mg/kg, Observed Tmax
  Tmax: 1 h
In vivo; iv, t 1/2
  half-life: 3 h
In vivo; po
  bioavailability: 85%
In vivo; po, 1 mg/kg
  Half-life (t½): 3.02 h
  bioavailability: 84.6%
  AUC(0-inf): 1.2 µM·h
In vivo; po, 1 mg/kg, C max
  Cmax: 500 nM
In vivo; po, 1 mg/kg, Half-life (t½)
  half-life: 1.86 h
In vivo; po, 1 mg/kg, Observed Tmax
  Tmax: 0.5 h
In vivo; po, 1 mg/kg, T max
  Tmax: 0.5 h
In vivo; po, 10 mg/kg
  Half-life (t½): 3.05 h
  bioavailability: 125%
  AUC(0-inf): 18.2 µM·h
In vivo; po, 10 mg/kg, C max
  Cmax: 7600 nM
In vivo; po, 10 mg/kg, Half-life (t½)
  half-life: 2.92 h
In vivo; sc, 1 mg/kg
  Half-life (t½): 2.16 h
  bioavailability: 97.8%
In vivo; sc, 1 mg/kg, Half-life (t½)
  half-life: 1.64 h
In vivo; sc, 1 mg/kg, Observed Cmax
  Cmax: 5360 nM
In vivo; sc, 10 mg/kg
  Half-life (t½): 3.00 h
  bioavailability: 150%
In vivo; sc, 10 mg/kg, Half-life (t½)
  half-life: 3.07 h
